Laboratory results reported in US12458025B2 (priority 2020, dated 2025).
Where two headings read alike, the source gives them in different places.

What was measured:
[1] = system: Candidatus Liberibacter asiaticus (CLas); format: cell-based; details: 25 μM, 72 h; tetracycline 500 ppm
[2] = system: Pseudomonas syringae (Gram negative); assay: Bacterial culture growth inhibition, cell density (OD: 600); format: cell-based; details: 24 h; for growth inhibition significance vs untreated (asterisks): N=4; for cell density (OD: 600): untreated 1.82
Procedure: These compounds were also tested against other phytobacteria. The respective bacterial cultures were grown in the presence of multiple concentrations of a compound (μM) for 24 h, followed by cell density measurements (OD: 600). […]

[3] = system: Candidatus Liberibacter solanacearum (CLso); format: in vivo, potato (Solanum tuberosum L. var. Atlantic); details: foliar spray 10 and 25 μM twice a week, 28 dpi; for CLso titers by qPCR: vs untreated controls; for disease symptoms (chlorosis, necrosis, leaf curling and wilting): vs untreated plants
[4] = system: Clavibacter michiganensis (Gram positive); assay: Bacterial culture growth inhibition, cell density (OD: 600); format: cell-based; details: for cell density (OD: 600): untreated 1.61
[5] = system: Candidatus Liberibacter solanacearum (CLso); format: cell-based; details: re-test, five biological replicates, 72 h; tetracycline 250 ppm
[6] = system: Agrobacterium tumefaciens (Gram negative); assay: Bacterial culture growth inhibition, cell density (OD: 600); format: cell-based; details: for cell density (OD: 600) / growth inhibition significance vs untreated (asterisks): 24 h; for cell density (OD: 600): untreated 1.12; for growth inhibition significance vs untreated (asterisks): N=4
[7] = system: bacteria, fungi, and the superbug MRSA; details: agar patch studies; cited from earlier work
[8] = cited from earlier work

Row | SMILES | inhibition of CLas (FIG. 1c) [1] | growth inhibition significance vs untreated (asterisks) ([2]; 5 μM) | cell density (OD: 600) ([2]; 5 μM) | growth inhibition significance vs untreated (asterisks) ([2]; 10 μM) | cell density (OD: 600) ([2]; 10 μM) | cell density (OD: 600) ([2]; 20 μM) | growth inhibition significance vs untreated (asterisks) ([2]; 50 μM) | cell density (OD: 600) ([2]; 50 μM) | CLso titers by qPCR [3] | disease symptoms (chlorosis, necrosis, leaf curling and wilting) [3] | cell density (OD: 600) ([4]; 5 μM, 24 h) | cell density (OD: 600) ([4]; 10 μM, 24 h) | cell density (OD: 600) ([4]; 20 μM, 24 h) | cell density (OD: 600) ([4]; 50 μM, 24 h) | inhibition of CLso (FIG. 1b) [5] | cell density (OD: 600) ([6]; 5 μM) | cell density (OD: 600) ([6]; 10 μM) | cell density (OD: 600) ([6]; 20 μM) | cell density (OD: 600) ([6]; 50 μM) | growth inhibition significance vs untreated (asterisks) ([2]; 20 μM) | further results
1 | COc1ccc(C2COc3c(ccc(O)c3OC)C2)c(OC)c1O (single isomer, unassigned; (-)) [Duartin (−), (−)-duartin] | inhibited | ** (highly effective, **P≤0.001) | 1.77 | ** (highly effective, **P≤0.001) | 1.78 | 1.79 | ** (highly effective, **P≤0.001) | 1.76 | lowered CLso titers | clearly lower level of disease symptoms | 1.66 | 1.61 | 1.65 | 1.62 | inhibited | 1.10 | 1.11 | 1.10 | 1.09 | – | –
2 | CN(C)CCOC(c1ccc(Cl)cc1)c1ccccn1.O=C(O)/C=C\C(=O)O (stereo not drawn) [Carbinoxamine maleate] | – | – | 1.81 | – | 1.81 | 1.81 | * (effective, *P≤0.05) | 1.77 | – | – | 1.68 | 1.63 | 1.58 | 1.59 | – | 1.10 | 1.08 | 1.14 | 1.20 | – | –
3 | Cc1cc(O)cc(C)c1Cl [Chloroxylenol, 4-chloro-3,5-dimethylphenol] | inhibited | – | 1.82 | – | 1.81 | 1.76 | ** (highly effective, **P≤0.001) | 1.30 | lowered CLso titers | clearly lower level of disease symptoms | 1.59 | 1.56 | 1.52 | 1.38 | inhibited | 1.12 | 1.06 | 0.99 | 0.92 | ** (highly effective, **P≤0.001) | time to kill a wide variety of microbes [7]: ≤ 15 s; effective against Clavibacter michiganensis [4]: effective; growth inhibition significance vs untreated (asterisks) ([4]; 50 μM, 24 h, N=4): ** (highly effective, **P≤0.001); effective against Agrobacterium tumefaciens [6]: effective; growth inhibition significance vs untreated (asterisks) ([6]; 50 μM): * (effective, *P≤0.05)
4 | CN(C)CCOC(=O)C(c1ccccc1)C1(O)CCCC1.Cl (stereo not drawn) [Cyclopentolate hydrochloride] | inhibited | * (effective, *P≤0.05) | 1.78 | – | 1.79 | 1.77 | ** (highly effective, **P≤0.001) | 1.73 | lowered CLso titers | clearly lower level of disease symptoms | 1.64 | 1.60 | 1.59 | 1.62 | inhibited | 1.08 | 1.11 | 1.11 | 1.12 | * (effective, *P≤0.05) | –
5 | Cl.NCCCCCC(=O)O [Aminocaproic acid hydrochloride, 6-aminohexanoic acid] | – | – | 1.80 | – | 1.81 | 1.80 | * (effective, *P≤0.05) | 1.78 | – | – | 1.64 | 1.64 | 1.66 | 1.59 | – | 1.17 | 1.16 | 1.10 | 1.11 | – | solubility ([8]; in chloroform): practically insoluble; solubility ([8]; in methanol): sparingly soluble; solubility ([8]; in water, acid, and alkaline solutions): soluble
6 | CCn1nc(C(=O)O)c(=O)c2cc3c(cc21)OCO3 [Cinoxacin, 1-ethyl-1,4-dihydro-4-oxo-[1,3] dioxolo [4,5-g] cinnoline-3-carboxylic acid] | – | * (effective, *P≤0.05) | 1.77 | * (effective, *P≤0.05) | 1.76 | 1.72 | ** (highly effective, **P≤0.001) | 1.76 | – | – | 1.63 | 1.64 | 1.59 | 1.57 | – | 1.17 | 1.11 | 1.13 | 0.94 | ** (highly effective, **P≤0.001) | effective against Agrobacterium tumefaciens [6]: effective; growth inhibition significance vs untreated (asterisks) ([6]; 50 μM): * (effective, *P≤0.05)
7 | CCCNC(=O)NS(=O)(=O)c1ccc(Cl)cc1 [Chlorpropamide] | – | ** (highly effective, **P≤0.001) | 1.77 | * (effective, *P≤0.05) | 1.78 | 1.76 | * (effective, *P≤0.05) | 1.77 | – | – | 1.67 | 1.65 | 1.63 | 1.56 | – | 1.14 | 1.14 | 1.17 | 1.16 | ** (highly effective, **P≤0.001) | effective against Clavibacter michiganensis [4]: effective; effective against Agrobacterium tumefaciens [6]: effective
